Results on six molecules are retold here after patent US20120295887A1, “PHARMACEUTICALLY ACCEPTABLE SALTS OF PYRROLO-NITROGENOUS HETEROCYCLIC DERIVATIVES, PREPARATION METHOD AND MEDICAL USE THEREOF” (SHANGHAI HENGRUI PHARMACEUTICAL CO., LTD., priority 2010, published 2012).

As a reminder, the Cmax is the highest concentration seen after dosing. A word on the MRT: it is the average time that molecules of a dose stay in the body. For orientation: Tmax means the time at which the peak concentration occurs. By half-life is commonly meant the time in which the quantity being followed falls by half. The low end stands for fast loss, the high end for slow loss. As a reminder, the CL/F is clearance divided by bioavailability, as obtained after extravascular dosing. Broadly, the bioavailability is the share of a dose that reaches the circulation, judged against a reference dose that is usually intravenous.

The nature of data set [1]: Pharmacokinetics assay in rats (intragastric and tail vein administration, plasma LC/MS/MS). In kind it is in vivo. As to conditions: for F (oral absolute bioavailability) / bioavailability: intragastric 10 mg/kg (calculated by the base part), from AUC0-t vs tail vein injection; for Cmax: 0.5% CMC-Na suspension; for bioavailability: read-out: F (oral absolute bioavailability). The procedure:
The rats were used as experimental animals. The compound of formula (I) and other salts thereof were administrated intragastrically, the maleate of the compound of formula (I) was injected into the tail vein to determine the drug concentration in plasma at different time points by LC/MS/MS method. The pharmacokinetic behavior, characteristics and the oral absolute bioavailability of the compounds in the present invention were studied and evaluated in rats.
The compound of formula (I), compounds of Example 1˜5.
28 healthy adult SD rats, male and female in half, were divided into 7 groups (4 rats in each group) and purchased from SINO-BRITSH SIPPR/BK LAB. ANIMAL LTD., CO, License number: SCXK (Shanghai) 2008-0016.
The intravenous injection administration group: the suitable amount of compounds were weighted, added into physiological saline and diluted to the final volume. The sample concentration was 1.0 mg/mL.
The intragastrical administration group: the suitable amount of compounds were weighted and added into 0.5% CMC-Na to prepare 1.0 mg/mL suspension by using ultrasound device. The sample should be prepared freshly away from light at the time of use.
28 healthy adult SD rats, male and female in half, were divided into 7 groups (4 rats in each group). After an overnight fast, the compound of Example 1, at a dose of 10 mg/kg (calculated by the base part), at a volume of 10 mL/kg, was administered intragastrically or injected into the tail vein.
For the intravenous injection administration group, blood samples (0.2 mL) were taken from orbital sinus at pre administration and at 2 minutes, 15 minutes, 30 minutes, 1.0 hour, 2.0 hours, 4.0 hours, 6.0 hours, 8.0 hours, 12.0 hours, 24.0 hours and 36.0 hours post administration, stored in heparinized tubes and centrifuged for 10 minutes at 3,500 rpm. The plasma samples were stored at −20° C.
For the intragastrical administration group, blood samples were taken at pre administration and at 0.5, 1.0, 2.0, 3.0, 4.0, 6.0, 8.0, 12.0, 24.0 and 36.0 hours post administration. The method to treat the samples was the same with the intravenous injection administration group. The rats were fed 2 hours after administration.
25 μL of rat plasmas taken at various time points after administration were mixed with 20 μL of internal standard solution and […] of methanol for 2 minutes by using a vortexer and the mixture was centrifuged for 10 minutes at 16,000 rpm. 10 pt of the supernatant was analyzed by LC-MS/MS.
25 μL of rat blank plasmas were mixed with a series of standard solutions respectively to obtain plasma concentration of 1.00, 2.00, 5.00, 25.0, 100, 500, 2000 and 5000 ng/mL. 20 μL of internal standard solution and 150 μL of methanol were added and then the mixture was operated according to “plasma sample pretreatment” method. Plasma concentration was used as the abscissa, the ratio of chromatographic peak area between the sample and internal standard was used as the ordinate, the linear regression was carried out by the weighted least square method (w=1/x^2) to obtain the typical standard curve equation.
Compartment model fitting was carried out on the pharmacokinetic behavior of the tested compounds to calculate the main pharmacokinetic parameters, wherein the measured values were taken for Cmax and tmax. Oral absolute bioavailability was calculated according to AUC0-t after intragastrical administration and intravenous injection at tail vein.

Data set [2] is described as follows: Solubility assay in physiological saline. In kind it is physicochemical. As to conditions: conclusion in words. As to the method:
According to the conventional solubility measurement, the solubility of the compound of formula (I) and salts thereof were determined in physiological saline.

Data set [3] in a line: Solubility in conventional solvents (inventor's finding). As to conditions: in words. In kind it is physicochemical. An excerpt:
It is necessary to develop new forms of the compound of formula (I) to improve its solubility and pharmacokinetic absorption, which can be used in conventional preparation of dosage forms.

The mark [4] stands for this setting: SD rats, intragastric 10 mg/kg, maleate.
The mark [5] stands for this setting: both sexes, Sprague-Dawley (SD), rat, plasma, iv, 10 mg/kg, Vein (tail vein injection) 10 mg/kg, read-out: MRT.
[6] abbreviates: both sexes, Sprague-Dawley (SD), rat, plasma, iv, Vein (tail vein injection) 10 mg/kg.
The mark [7] stands for this setting: both sexes, Sprague-Dawley (SD), rat, plasma, iv, Vein (tail vein injection) 10 mg/kg in physiological saline, read-out: AUC0-t.
[8] abbreviates: both sexes, Sprague-Dawley (SD), rat, plasma, po, 10 mg/kg, intragastric 10 mg/kg.
Setting [9] is: both sexes, Sprague-Dawley (SD), rat, plasma, po, 10 mg/kg.
[10] abbreviates: both sexes, Sprague-Dawley (SD), rat, plasma, po, 10 mg/kg, intragastric 10 mg/kg, read-out: Cmax.
Setting [11] is: both sexes, Sprague-Dawley (SD), rat, plasma, po, 10 mg/kg, intragastric 10 mg/kg, read-out: AUC0-t.
[12] abbreviates: both sexes, Sprague-Dawley (SD), rat, plasma, po, 10 mg/kg, intragastric 10 mg/kg, read-out: MRT.
The mark [13] stands for this setting: both sexes, Sprague-Dawley (SD), rat, plasma, po, 10 mg/kg, intragastric 10 mg/kg, read-out: Tmax.
The mark [14] stands for this setting: SD rats, Vein (tail vein injection) 10 mg/kg.

SMILES strings stand for the structures. Where a name gives a salt, the structure may show the parent alone. Read-outs that look alike come from different tables or passages of the source.

With `Cc1c(/C=C2\C(=O)Nc3ccc(F)cc32)[nH]c2c1C(=O)N(C[C@H](O)CN1CCOCC1)CCC2` [Example 1, (R,Z)-2-(5-fluoro-2-oxo-1,2-dihydro-indol-3-ylidenemethyl)-5-(2-hydroxy-3-morpholin-4-yl-propyl)-3-methyl-5,6,7,8-tetrahydro-1H-pyrrolo[3,2-c]azepin-4-one maleate], the “F (oral absolute bioavailability)” value in data set [1] (SD rats, maleate) is listed as 48.2%. Further, in data set [1] (setting [4]), the Cmax came to 0.95 ± 0.37 µg/mL, the AUC(0-t) was determined as 7.77 ± 2.99 µg·h/mL, the MRT amounted to 6.66 ± 2.05 h and the Tmax is listed as 5.75 ± 2.06 h. In data set [1] (setting [4]), the t1/2 is 3.01 ± 0.60 h. The “solubility compared with free base and other salts of the compound of formula (I)” value in data set [2] was “Conclusion: Compared with free base and other salts of the compound of formula (I), the solubility of maleate of the compound of formula (I) has significantly improved”.
For the molecule `Cc1c(/C=C2\C(=O)Nc3ccc(F)cc32)[nH]c2c1C(=O)N(C[C@H](O)CN1CCOCC1)CCC2.O=C(O)C[C@H](O)C(=O)O` [Example 2, (R,Z)-2-(5-fluoro-2-oxo-1,2-dihydro-indol-3-ylidenemethyl)-5-(2-hydroxy-3-morpholin-4-yl-propyl)-3-methyl-5,6,7,8-tetrahydro-1H-pyrrolo[3,2-c]azepin-4-one malate], the MRT in data set [1] (setting [5]) came out at 1.4 ± 0.35 h; in data set [1] (setting [12]), 4.29 ± 1.87 h. The half-life in data set [1] (setting [6]) was 5.97 ± 2.5 h; in data set [1] (setting [8]), 3.13 ± 0.97 h. The results for the AUC(0-t) in data set [1] (setting [7]) and in data set [1] (setting [11]) were 16.1 ± 3.97 µg·h/mL and 4.9 ± 2.79 µg·h/mL, respectively. Also, the apparent clearance CL/F in data set [1] (setting [8]) was 1.79 L/h/kg. Besides, the bioavailability in data set [1] (setting [9]) is 30.4%. Moreover, the Cmax in data set [1] (setting [10]) was found to be 0.85 ± 0.39 µg/mL. In addition, the Tmax in data set [1] (setting [13]) was 1.75 ± 1.66 h.
For the molecule `CC(O)C(=O)O.Cc1c(/C=C2\C(=O)Nc3ccc(F)cc32)[nH]c2c1C(=O)N(C[C@H](O)CN1CCOCC1)CCC2` [Example 3, (R,Z)-2-(5-fluoro-2-oxo-1,2-dihydro-indol-3-ylidenemethyl)-5-(2-hydroxy-3-morpholin-4-yl-propyl)-3-methyl-5,6,7,8-tetrahydro-1H-pyrrolo[3,2-c]azepin-4-one lactate], the MRT in data set [1] (setting [5]) is 1.4 ± 0.35 h; in data set [1] (setting [12]), 6.28 ± 1.56 h. Also, the half-life in data set [1] (setting [6]) is 5.97 ± 2.5 h; in data set [1] (setting [8]) it was 3.06 ± 1.21 h. In addition, the AUC(0-t) in data set [1] (setting [7]) is 16.1 ± 3.97 µg·h/mL; in data set [1] (setting [11]) it was 5.9 ± 3.35 µg·h/mL. Besides, the apparent clearance CL/F in data set [1] (setting [8]) was 1.64 L/h/kg. The bioavailability in data set [1] (setting [9]) was 36.6%. The Cmax in data set [1] (setting [10]) is 0.81 ± 0.45 µg/mL. Besides, the Tmax in data set [1] (setting [13]) is 2.5 ± 1 h.
For the molecule `Cc1c(/C=C2\C(=O)Nc3ccc(F)cc32)[nH]c2c1C(=O)N(C[C@H](O)CN1CCOCC1)CCC2` [Example 4, (R,Z)-2-(5-fluoro-2-oxo-1,2-dihydro-indol-3-ylidenemethyl)-5-(2-hydroxy-3-morpholin-4-yl-propyl)-3-methyl-5,6,7,8-tetrahydro-1H-pyrrolo[3,2-c]azepin-4-one mesylate], in data set [1] (SD rats, mesylate), the “F (oral absolute bioavailability)” value is on record as 45.3%. Also, in data set [1] (SD rats, intragastric 10 mg/kg, mesylate), the Tmax was determined as 3.75 ± 1.71 h. For the same molecule, the figures for the mean residence time MRT in data set [1] (setting [5]) and in data set [1] (setting [12]) were 1.4 ± 0.35 h and 6.68 ± 1.58 h, respectively. The results for the half-life in data set [1] (setting [6]) and in data set [1] (setting [8]) were 5.97 ± 2.5 h and 3.41 ± 0.85 h, respectively. Further, the AUC(0-t) in data set [1] (setting [7]) worked out at 16.1 ± 3.97 µg·h/mL; in data set [1] (setting [11]), 7.3 ± 5.87 µg·h/mL. The molecule also showed a CL/F in data set [1] (setting [8]) of 1.49 L/h/kg. In addition, in data set [1] (setting [10]), the Cmax stood at 0.77 ± 0.39 µg/mL.
On to `Cc1c(/C=C2\C(=O)Nc3ccc(F)cc32)[nH]c2c1C(=O)N(C[C@H](O)CN1CCOCC1)CCC2.Cl` [Example 5, (R,Z)-2-(5-fluoro-2-oxo-1,2-dihydro-indol-3-ylidenemethyl)-5-(2-hydroxy-3-morpholin-4-yl-propyl)-3-methyl-5,6,7,8-tetrahydro-1H-pyrrolo[3,2-c]azepin-4-one hydrochloride], for which the half-life in data set [1] (both sexes, Sprague-Dawley (SD), rat, plasma, iv, 10 mg/kg, Vein (tail vein injection) 10 mg/kg) is 5.97 ± 2.5 h; in data set [1] (setting [8]), 3.6 ± 0.52 h. For the same molecule, the AUC(0-t) in data set [1] (both sexes, Sprague-Dawley (SD), rat, plasma, iv, 10 mg/kg, Vein (tail vein injection) 10 mg/kg in physiological saline, read-out: AUC0-t) is 16.1 ± 3.97 µg·h/mL; in data set [1] (setting [11]), 4.07 ± 1.63 µg·h/mL. The MRT in data set [1] (setting [5]) is 1.4 ± 0.35 h; in data set [1] (setting [12]), 6.8 ± 1.58 h. Moreover, the CL/F in data set [1] (setting [8]) was 2.03 L/h/kg. In addition, the bioavailability in data set [1] (setting [9]) is 25.2%. Also, the Cmax in data set [1] (setting [10]) was 0.5 ± 0.1 µg/mL. For the same molecule, the Tmax in data set [1] (setting [13]) is 4.25 ± 2.06 h.
In data set [1] (setting [14]), `Cc1c(/C=C2\C(=O)Nc3ccc(F)cc32)[nH]c2c1C(=O)N(C[C@H](O)CN1CCOCC1)CCC2` [The compound of formula (I), (R,Z)-2-(5-fluoro-2-oxo-1,2-dihydro-indol-3-ylidenemethyl)-5-(2-hydroxy-3-morpholin-4-yl-propyl)-3-methyl-5,6,7,8-tetrahydro-1H-pyrrolo[3,2-c]azepin-4-one] displayed an MRT of 1.40 ± 0.35 h and a t1/2 of 5.97 ± 2.50 h. In addition, the AUC(0-t) in data set [1] (SD rats, Vein (tail vein injection) 10 mg/kg in physiological saline) turned out to be 16.12 ± 3.97 µg·h/mL. Moreover, in data set [1] (SD rats, intragastric 10 mg/kg), the AUC(0-t) was found to be 4.49 ± 2.79 µg·h/mL, the MRT is recorded as 5.24 ± 2.23 h, the time to peak (Tmax) was 2.00 ± 1.41 h and the t1/2 was 3.31 ± 0.57 h. Besides, the Cmax in data set [1] (SD rats, intragastric 10 mg/kg) amounted to 0.64 ± 0.24 µg/mL. In addition, the “F (oral absolute bioavailability)” value in data set [1] (SD rats) is 27.9%. Moreover, the “solubility in conventional solvents” value in data set [3] is given as “poorly soluble”.
